The values below come from ChEMBL document CHEMBL5518180, “Design, synthesis, and biological evaluation of harmine derivatives as topoisomerase I inhibitors for cancer treatment” (Eur J Med Chem, 2024).

Series [1] in a line: Cytotoxicity against human L02 cells assessed as inhibition of cell growth incubated for 48 hrs by MTT assay. It counts as toxicity, cell-based. Background: Tetrazolium dyes change colour on reduction, which living cells bring about.
Series [2] deals with MCF7. As to the kind of experiment: Induction of apoptosis in human MCF7 cells assessed as increase in cleaved-PARP protein expression incubated for 24 hrs by Western blotting analysis. It counts as functional, cell-based. Conditions: dose 0.1-2 µM. On the technique in general: A western blot detects proteins with antibodies after separation by electrophoresis.
The test system of series [3] is MCF7. As to the kind of experiment: Induction of DNA damage in human MCF7 cells at 5 to 10 uM pre-incubated for 24 hrs by Comet assay. The format is functional, cell-based. Conditions: dose 5-10 µM.
Series [4] in a line: Toxicity in BALB/c mouse transplanted with […] cells assessed as change in body weight at 5 to 20 mg/kg, ip administered for 14 days. It counts as organism-based. Conditions: in vivo, 336 h, dose 5-20 mg/kg, time 14 day.
The test system of a further series is HT-29. The series can be described thus: Antiproliferative activity against human HT-29 cells assessed as inhibition of cell growth incubated for 48 hrs by MTT assay. It counts as functional, cell-based. Conditions: HT-29, 48 h.
A short description of series [5]: Toxicity in BALB/c mouse transplanted with […] cells assessed as change in blood urea nitrogen level at 5 to 20 mg/kg, ip administered for 14 days by biochemical analysis. The note with it: in vivo, 336 h, dose 5-20 mg/kg, time 14 day. It counts as organism-based.
The subject of series [6] is MCF7. The series can be described thus: Antimigratory activity against human MCF7 cells assessed as inhibition of recovery of cells from scratch wounds incubated for 24 hrs by inverted fluorescence microscopic analysis. It counts as functional, cell-based. The note with it: dose 0.125-0.5 µM.
Series [7] has as its system MCF7. The series can be described thus: Induction of apoptosis in human MCF7 cells assessed as decrease in Bcl-2 protein level incubated for 24 hrs by Western blotting analysis. The format is functional, cell-based. Conditions: dose 0.1-2 µM.
The test system of series [8] is MCF7. The series can be described thus: Induction of DNA damage in human MCF7 cells at 1 uM pre-incubated for 24 hrs by Comet assay. It counts as functional, cell-based.
Series [9] has as its system MCF7. The series can be described thus: Inhibition of colony formation in human MCF7 cells incubated for 2 weeks by crystal violet staining based analysis. The note with it: dose 0.075-1.2 µM. It counts as functional, cell-based.
Series [10] has as its system MCF7. The series can be described thus: Antimigratory activity against human MCF7 cells assessed as wound healing rate at 0.5 uM incubated for 24 hrs by inverted fluorescence microscopic analysis (reference value: 42.5 %). It counts as functional.
The next series relates to 4T1. As to the kind of experiment: Antitumor activity against mouse 4T1 cells transplanted in BALB/c mouse assessed as tumor growth inhibition rate at 10 mg/kg, ip administered for 14 days relative to control. It counts as functional. Set-up: scale not given: the % may be the effect or the level left. The note with it: time 14 day.
Series [11] deals with T1, DNA topoisomerase 1 (Homo sapiens) (UniProt P11387).
T1 sequence (whole entry): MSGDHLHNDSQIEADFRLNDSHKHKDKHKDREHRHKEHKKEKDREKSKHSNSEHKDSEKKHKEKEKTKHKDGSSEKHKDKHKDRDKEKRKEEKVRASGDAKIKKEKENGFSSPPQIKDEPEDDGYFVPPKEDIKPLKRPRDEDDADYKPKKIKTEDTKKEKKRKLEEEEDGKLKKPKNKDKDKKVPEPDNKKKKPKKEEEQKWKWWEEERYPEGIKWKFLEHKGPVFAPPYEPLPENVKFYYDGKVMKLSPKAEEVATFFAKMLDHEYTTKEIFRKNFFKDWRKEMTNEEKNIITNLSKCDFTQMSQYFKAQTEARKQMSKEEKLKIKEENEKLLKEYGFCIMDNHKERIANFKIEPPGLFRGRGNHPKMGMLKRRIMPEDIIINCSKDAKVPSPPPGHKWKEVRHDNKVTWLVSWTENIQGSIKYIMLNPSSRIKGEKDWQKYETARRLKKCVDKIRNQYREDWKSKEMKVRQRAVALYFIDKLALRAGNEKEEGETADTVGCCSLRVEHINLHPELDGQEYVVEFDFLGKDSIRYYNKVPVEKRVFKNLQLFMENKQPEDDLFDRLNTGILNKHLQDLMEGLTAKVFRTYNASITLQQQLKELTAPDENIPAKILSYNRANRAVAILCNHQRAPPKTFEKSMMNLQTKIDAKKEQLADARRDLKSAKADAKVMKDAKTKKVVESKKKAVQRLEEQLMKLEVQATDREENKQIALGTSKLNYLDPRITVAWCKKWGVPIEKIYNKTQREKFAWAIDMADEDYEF
As to the kind of experiment: Inhibition of Topoisomerase I (unknown origin) assessed as inhibition of relaxation of supercoiled DNA incubated for 90 mins in presence of pBR322 by electrophoretic analysis. Conditions: dose 25-100 µM.

Series [12] concerns MCF7. The series can be described thus: Induction of apoptosis in human MCF7 cells assessed as late apoptotic cells at 0.1 uM incubated for 24 hrs by Annexin V-FITC/Propidium Iodide staining based flow cytometry analysis (reference value: 5.58 %). It counts as functional. On the technique in general: A flow cytometer gives signals particle by particle.
The next series concerns MDA-MB-231. The series can be described thus: Antiproliferative activity against human MDA-MB-231 cells assessed as inhibition of cell growth incubated for 48 hrs by MTT assay. The format is functional, cell-based. Conditions: MDA-MB-231, 48 h.
Series [13] can be described thus: Toxicity in BALB/c mouse transplanted with […] cells assessed as change in creatinine level at 5 to 20 mg/kg, ip administered for 14 days by biochemical analysis. It counts as organism-based. The note with it: in vivo, 336 h, dose 5-20 mg/kg, time 14 day.
Series [14] in a line: Toxicity in BALB/c mouse transplanted with […] cells assessed as heart damage at 5 to 20 mg/kg, ip administered for 14 days by hematoxylin and eosin staining based analysis. The format is organism-based. Conditions: in vivo, 336 h, dose 5-20 mg/kg, time 14 day.

Activity calls are given as the source filed them. No cut-off for these calls is given here.

In the case of `O=C(/C=C/c1ccc(Cl)c([N+](=O)[O-])c1)c1nccc2c1[nH]c1ccccc12`, in series [1], the IC50 at 48 h worked out at 9610 nM. In addition, the Activity entry with MCF7 [2] is “Dose-Dependent Effect”; in series [4], “Non-Toxic”; in [5] it was “Non-Toxic”; with MCF7 [6], “Dose-Dependent Effect”; in the series on MCF7 [7], “Dose-Dependent Effect”; with MCF7 [10], 1.4%. For the same compound, the Activity is on record as 43.19% in the series on 4T1, 7.06% in the series on MCF7 [12], “Non-Toxic” in series [13] and “Non-Toxic” in [14]. Further, the outcome in the series with MCF7 [3] was Active. The IC50 was found to be 570 nM in the series on HT-29 and 980 nM in the series with MDA-MB-231. In the series with MCF7 [8], the result was inactive. The inhibition entry (in the series with MCF7 [9]; in series [11]) was “Dose-Dependent Effect” in each case.

Usually IC50 stands for the point on the concentration scale where inhibition reaches its midpoint.
